The values below are quoted from earlier work in patent publication US10548837B1, “Topical montelukast for treatment of atopic dermatitis” (TARO PHARMACEUTICAL INDUSTRIES LTD., priority 2016, dated 2020).

The target in this data set is T1, cysLT1 receptor (Homo sapiens, UniProt Q9Y271).
T1 sequence (Q9Y271 1-337): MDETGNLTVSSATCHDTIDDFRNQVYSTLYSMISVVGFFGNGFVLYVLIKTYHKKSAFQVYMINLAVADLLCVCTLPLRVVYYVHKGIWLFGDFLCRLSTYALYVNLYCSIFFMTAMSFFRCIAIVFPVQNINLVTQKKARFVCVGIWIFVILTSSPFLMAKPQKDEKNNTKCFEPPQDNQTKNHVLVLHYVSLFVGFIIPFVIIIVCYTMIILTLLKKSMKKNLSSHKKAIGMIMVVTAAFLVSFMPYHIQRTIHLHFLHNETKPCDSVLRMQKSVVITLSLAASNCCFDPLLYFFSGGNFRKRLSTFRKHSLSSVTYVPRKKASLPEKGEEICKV
As to conditions: background statement.

For the compound `COc1cc(C(=O)NS(=O)(=O)c2ccccc2C)ccc1Cc1cn(C)c2ccc(NC(=O)OC3CCCC3)cc12` [zafirlukast], the “binding to the cysLT1 receptor” value is recorded as “high-affinity binding”.
